Tested on: SEM cells
Assay: cell viability relative to DMSO control; higher = less cytotoxic
Conditions: 48 h
Procedure, shortened: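 Viability values are per-plate percentages of DMSO wells, with background from cell-free wells. Library compounds in DMSO were pin-dosed, in an 11-point threefold series from 47 μM to 0.79 nM, onto NOMO1 or SEM (500 cells/well) or P12-Ichikawa (1000 cells/well) leukemia cells in 1536-well plates (5 μl). Those cells had been adapted for at least four passages in each medium, and CellTiter-Glo One luminescence was read after 48 h at 37°C.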

[1] = HPLM + 10% dialyzed FBS, 0.000781 µM
[2] = HPLM + 10% dialyzed FBS, 0.00234 µM
[3] = HPLM + 10% dialyzed FBS, 0.00702 µM
[4] = HPLM + 10% dialyzed FBS, 0.0211 µM
[5] = HPLM + 10% dialyzed FBS, 0.0632 µM
[6] = HPLM + 10% dialyzed FBS, 0.19 µM
[7] = HPLM + 10% dialyzed FBS, 0.569 µM
[8] = HPLM + 10% dialyzed FBS, 1.71 µM
[9] = HPLM + 10% dialyzed FBS, 5.12 µM
[10] = HPLM + 10% dialyzed FBS, 15.4 µM
[11] = HPLM + 10% dialyzed FBS, 46.1 µM
[12] = RPMI 5 mM glucose + 10% FBS, 0.000781 µM
[13] = RPMI 5 mM glucose + 10% FBS, 0.00234 µM
[14] = RPMI 5 mM glucose + 10% FBS, 0.00702 µM
[15] = RPMI 5 mM glucose + 10% FBS, 0.0211 µM
[16] = RPMI 5 mM glucose + 10% FBS, 0.0632 µM
[17] = RPMI 5 mM glucose + 10% FBS, 0.19 µM
[18] = RPMI 5 mM glucose + 10% FBS, 0.569 µM
[19] = RPMI 5 mM glucose + 10% FBS, 1.71 µM
[20] = RPMI 5 mM glucose + 10% FBS, 5.12 µM
[21] = RPMI 5 mM glucose + 10% FBS, 15.4 µM
[22] = RPMI 5 mM glucose + 10% FBS, 46.1 µM
[23] = RPMI 5 mM glucose + 10% dialyzed FBS, 0.000781 µM
[24] = RPMI 5 mM glucose + 10% dialyzed FBS, 0.00234 µM
[25] = RPMI 5 mM glucose + 10% dialyzed FBS, 0.00702 µM
[26] = RPMI 5 mM glucose + 10% dialyzed FBS, 0.0211 µM
[27] = RPMI 5 mM glucose + 10% dialyzed FBS, 0.0632 µM
[28] = RPMI 5 mM glucose + 10% dialyzed FBS, 0.19 µM
[29] = RPMI 5 mM glucose + 10% dialyzed FBS, 0.569 µM
[30] = RPMI 5 mM glucose + 10% dialyzed FBS, 1.71 µM
[31] = RPMI 5 mM glucose + 10% dialyzed FBS, 5.12 µM
[32] = RPMI 5 mM glucose + 10% dialyzed FBS, 15.4 µM
[33] = RPMI 5 mM glucose + 10% dialyzed FBS, 46.1 µM

Row | Compound | cell viability [1] [%] | cell viability [2] [%] | cell viability [3] [%] | cell viability [4] [%] | cell viability [5] [%] | cell viability [6] [%] | cell viability [7] [%] | cell viability [8] [%] | cell viability [9] [%] | cell viability [10] [%] | cell viability [11] [%] | cell viability [12] [%] | cell viability [13] [%] | cell viability [14] [%] | cell viability [15] [%] | cell viability [16] [%] | cell viability [17] [%] | cell viability [18] [%] | cell viability [19] [%] | cell viability [20] [%] | cell viability [21] [%] | cell viability [22] [%] | cell viability [23] [%] | cell viability [24] [%] | cell viability [25] [%] | cell viability [26] [%] | cell viability [27] [%] | cell viability [28] [%] | cell viability [29] [%] | cell viability [30] [%] | cell viability [31] [%] | cell viability [32] [%] | cell viability [33] [%]
1 | OC[C@H]1O[C@@H]2[C@@H](OC\3=N\C(=N)\C=C/[N@@]23)[C@@H]1O | 94 | 107 | 93.1 | 97.8 | 84.4 | 47.9 | 34.6 | 28.1 | 21.9 | 16.1 | 14.5 | 105 | 116 | 102 | 117 | 87 | 46.9 | 41.9 | 23.3 | 16 | 13.8 | 13.5 | 85.3 | 86.2 | 99.8 | 81.1 | 59.8 | 37.8 | 22.4 | 14.8 | 13 | 10.7 | 8.17
2 | Nc1ncnc2c1c(-c1cccc(OCc3ccccc3)c1)cn2C1CC(CN2CCCC2)C1 (configuration not stated) | 97.6 | 112 | 120 | 108 | 113 | 111 | 89.8 | 83.1 | 63.8 | 45.4 | 29.6 | 89.4 | 113 | 125 | 115 | 128 | 121 | 103 | 95.3 | 87.8 | 54.8 | 31.5 | – | – | – | – | – | – | – | – | – | – | –
3 | CCN(c1ccccc1)c1cc(NC)[n+](C)c(C)n1 | 110 | 107 | 108 | 101 | 107 | 114 | 99.5 | 116 | 104 | 102 | 97.9 | 111 | 97.2 | 96.4 | 105 | 99.5 | 101 | 87.7 | 100 | 105 | 95.3 | 101 | 101 | 105 | 97.4 | 108 | 99.9 | 97.4 | 105 | 99.1 | 107 | 106 | 100
4 | CC1(C)C(N(O)C(=O)Nc2ccc(Cl)cc2)N(c2ccc(Cl)cc2)C(=O)N1CC(=O)N/N=C/C=C/c1ccc([N+](=O)[O-])o1 (configuration not stated) | 128 | 117 | 120 | 119 | 122 | 81.4 | 110 | 117 | 52.7 | 107 | 3.81 | – | – | – | – | – | – | – | – | – | – | – | 114 | 115 | 111 | 113 | 121 | 91.6 | 104 | 99.1 | 30.9 | 80.8 | 2.64
5 | COc1cccc2c1CCCC2CCCN1CCN(C2CCCCC2)CC1 (configuration not stated) | 88.4 | 85 | 80.9 | 91.1 | 91.6 | 110 | 96.9 | 88.8 | 97.1 | 83.5 | 55.3 | 87.8 | 85.6 | 89.9 | 91.1 | 101 | 107 | 103 | 97 | 81.3 | 79.1 | 42.9 | 87.7 | 83.3 | 97 | 102 | 111 | 114 | 104 | 91 | 96.7 | 87.6 | 52.5
6 | O=C(/C=C/c1ccc(O)cc1)c1ccc(O)cc1O | 113 | 112 | 131 | 108 | 141 | 131 | 120 | 109 | 124 | 81.2 | 26.6 | 118 | 122 | 134 | 125 | 124 | 133 | 106 | 116 | 111 | 79.6 | 17 | 98 | 94.4 | 118 | 91.9 | 121 | 105 | 100 | 91 | 81.8 | 59.5 | 9.38
7 | CC/1=C(/N2[C@H](SC1)[C@H](NC(=O)C(N)C3=CC=CC=C3)C2=O)C(O)=O (some centres not stated) | 99.3 | 113 | 119 | 110 | 108 | 120 | 120 | 124 | 114 | 126 | 131 | 128 | 118 | 117 | 132 | 155 | 138 | 129 | 141 | 136 | 122 | 131 | 115 | 119 | 137 | 143 | 129 | 140 | 132 | 142 | 132 | 130 | 134
8 | COc1ncc(-c2ccc3c(Nc4cc(Oc5cc(F)cc(F)c5)cc(C(=O)O)c4)c([S+](=O)([O-])NC4CC4)cnc3c2)c(OC)n1 | 90.4 | 78.2 | 77.5 | 86 | 85.2 | 79.4 | 88.1 | 82.2 | 75.5 | 78 | 71.5 | 135 | 107 | 117 | 133 | 130 | 119 | 138 | 100 | 109 | 119 | 113 | 102 | 83.5 | 79.7 | 88.6 | 85 | 89.7 | 97.5 | 75.4 | 82.1 | 104 | 67.9
